In patent US12653827B2, “Methods of treating indolent systemic mastocytosis” (Telios Pharma Inc., priority 2024, dated 2026):
Where “and” joins values, the source holds several entries; their conditions need not be identical. Identical values can stand only once. Like-named read-outs stand apart in the source and are kept apart here.

Tests used:
[1] = Clinical study in ISM patients, total symptom score (ISM-TSAF, SISM-TSAF); format: in vivo, human; conditions: 100 mg or 150 mg BID
Protocol: Efficacy of Compound 128 will be evaluated among adult subjects diagnosed with ISM as defined by WHO diagnostic criteria. The subjects have moderate-to-severe symptoms based on minimum mean total symptom scores (TSS) of ISM-TSAF over the 14-day eligibility screening period for assessment of TSS of ISM-TSAF. Minimum baseline TSS of ISM-TSAF for eligibility is >28. Subjects will receive either 50, 75, 100 or 150 mg BID of Compound 128 plus best supportive care. Subject will be treated for twenty-four weeks and will be evaluated at twelve weeks and twenty-four weeks. Evaluation will be based on the 14-day rolling average TSS of ISM-TSAF or SISM-TSAF. The TSS of ISM-TSAF is based on patient reporting on eleven separate symptoms, measuring the severity of a broad range of mastocytosis-related symptoms over the prior 24 hours, based on a score from zero (no symptoms) to ten (worst possible symptoms experienced) scale for a TSS between 0-110. The eleven symptoms to be scored by the subject are fatigue, abdominal pain, diarrhea, skin spots, itching, flushing, brain fog, headache, dizziness and bone pain. The TSS of SISM-TSAF is based on patient reporting on nine separate symptoms based on a score from zero (no symptoms) to ten (worst possible symptoms experienced). The nine symptoms to be scored by the subject are muscle pain, runny nose, nasal congestion, wheezing, shortness of breath, throat itching, heart palpitations, difficulty concentrating, and diarrhea. The first eight items measure the severity of a broad range of mastocytosis-related symptoms over the prior 24 hours. Each of the first eight symptom is assessed on a 0 (None) to 10 (Worst Imaginable) scale for a TSS between 0-80. The 9th item measures incidence of diarrhea over the prior 24 hours. Endpoints will also be based on mean change in TSS of ISM-TSAF or SISM-TSAF based on 14-day average of patient-reported severity of ISM symptoms; mean change in serum tryptase level, KIT D816V VAF, change in best supportive care medications and change in number of anaphylactic episodes.
Five ISM patients have been treated with Compound 128 at 100 mg or 150 mg BID. At week 12, the TSS of ISM-TSAF is reduced by 28 points compared to the placebo group (FIG. 24), and the TSS of SISM-TSAF is reduced by 22.7 points, compared to the placebo (FIG. 25). In contrast, avapritinib 25 mg QD reduced the TSS of ISM-TSAF by 5.7 points at week 24 (FIG. 23). The average reduction of total symptom score of ISM-TSAF is 55% compared to the baseline while the average reduction of total symptom score of ISM-TSAF is 38% compared to the placebo group (FIG. 28).

basophils [2] = test: Basophil Activation Test (BAT), CD63, anti-FcεR stimulated blood from healthy donors; format: cell-based, human; conditions: for EC50: Homo sapiens
Protocol: (§1) The BAT was conducted as set forth in Santos (2021) Allergy, 76:2420-2432. Blood from six healthy donors was drawn and Compound 128 was added at various concentrations (10 μM, 3.16 μM, 1 μM, 0.3 μM, 0.1 μM, 0.03 μM, or 0 μM). Blood samples were gently rocked at room temperature for 2 hours, 24 hours, or 48 hours. The BAT assay using the Flow Cast Basophil Activation Kit (Buhlmann Diagnostics; Catalog #B-CCR-STCON) was then conducted following manufacturer instructions by (1) stimulating the blood with anti-FcεR stimulation control in stimulation buffer with IL-3 and staining cells for CCR3 and CD63 for 15 minutes at 37° C., (2) lysing red blood cells and fixing cells with Lysing Reagent at room temperature for 10 minutes, (3) washing cells with Wash Buffer, and (4) acquiring data on a flow cytometer. Activated basophils were defined as CCR3+, low side scatter and CD63+. Percent of activated basophils was calculated as number of activated basophils over the total number of basophils. A four-parameter logistic regression was applied to determine the EC50 and EC90.

mast cells [3] = test: Degranulation of mast cells grown from CD34+ blood cells of ISM patients (FIG. 22); format: cell-based; conditions: absence of SCF at the time of stimulation
mast cells [4] = test: Potency across healthy and ISM mast cells (FIG. 16); format: cell-based; conditions: presence of SCF; CD63, CD203, pBTK, histamine, calcium flux
Protocol: Healthy BM-MC donor 0166 and ISM WB-MC 1061-004 17 Jan. 2024 and 17 Oct. 2024. Experiments performed in the presence of SCF. Sensitization and Stimulation: NP-IgE (100 ng/mL) 18 hrs, NP-BSA (0.5 ng/mL) for 15 min at 37° C. (CD63, CD203, pBTK and histamine) or 4 min at RT (Calcium Flux).

basophils [5] = test: Comparison of BTK inhibitors by BAT (CD63 and CD203c); format: cell-based, human; conditions: concentration of 1 μM; 2 hours; blood from a healthy donor
Protocol: as §1, with “The” for “The BAT was conducted as set forth in Santos (2021) Allergy, 76:2420-2432. Blood from six healthy donors was drawn and Compound 128 was added at various concentrations (10 μM, 3.16 μM, 1 μM, 0.3 μM, 0.1 μM, 0.03 μM, or 0 μM). Blood samples were gently rocked at room temperature for 2 hours, 24 hours, or 48 hours. The”
Blood samples were gently rocked at room temperature for 2 hours. […] Activated basophils were also defined as CCR3+, low side scatter and CD203c+.

C=CC(=O)N1CCC(F)(CNc2ncnc(N)c2-c2ccc(Oc3ccccc3)cc2)CC1 [Compound 128, 1-(4-(((6-amino-5-(4-phenoxyphenyl)pyrimidin-4-yl)amino)methyl)-4-fluoropiperidin-1-yl)prop-2-en-1-one]
average reduction of total symptom score of ISM-TSAF compared to the placebo group [1]: 38%
average reduction of total symptom score of ISM-TSAF compared to the baseline ([1]; 12-week treatment): 55%
reduction of TSS of ISM-TSAF compared to the placebo group ([1]; week 12): 28.0 points and 28 points
reduction of TSS of SISM-TSAF compared to the placebo ([1]; week 12): 22.7 points
EC50 (basophils [2]; 2-hour drug exposure, blood from six healthy donors, read-out: average EC50, inhibition of anti-FcεR induced basophil activation (CD63+)): 500 nM
EC50 (basophils [2]; 24-hour drug exposure, blood from six healthy donors, read-out: average EC50, inhibition of anti-FcεR induced basophil activation (CD63+)): 120 nM
EC50 (basophils [2]; 48-hour drug exposure, blood from six healthy donors, read-out: average EC50, inhibition of anti-FcεR induced basophil activation (CD63+)): 100 nM
EC50 (basophils [2]; 24 hours exposure, Example 2, read-out: average EC50 (n=4), CD63 normalized to DMSO control in CCR3+ basophils): 120 nM
potency increase of basophil activation inhibition (basophils [2]; after 24 hours drug exposure): approximately 4 fold
degranulation of ISM patient-derived mast cells (mast cells [3]): inhibited
potency across healthy mast cells and ISM mast cells (mast cells [4]): equipotent
effect on basophil activation (CD63+, CD203c+) (basophils [5]): fully inhibits basophil activation
